Tests used:
P. falciparum Dd2 = experiment: In vitro P. falciparum blood-stage culture and assay; format: cell-based; conditions: Plasmodium falciparum, DD2, 72 h, 72 h incubation, SYBR Green I readout, read-out: Pf Dd2
Procedure: Strains of P. falciparum (Dd2, 3D7, D6, K1, NF54, V1/3, HB3, 7G8, FCB and TM90C2B) were obtained from the Malaria Research and Reference Reagent Resource Center (MR4). P. falciparum isolates were maintained with O-positive human blood in an atmosphere of 93% N2, 4% CO2, 3% O2 at 37° C. in complete culturing medium (10.4 g/L RPMI 1640, 5.94 g/L HEPES, 5 g/L albumax II, 50 mg/L hypoxanthine, 2.1 g/L sodium bicarbonate, 10% human serum and 43 mg/L gentamicin). Parasites were cultured in medium until parasitaemia reached 3-8%. Parasitaemia was determined by checking at least 500 red blood cells from a Giemsa-stained blood smear. For the compound screening, a parasite dilution at 2.0% parasitaemia and 2.0% haematocrit was created with medium. 25 μl of medium was dispensed into 384-well black, clear-bottom plates and 100 nl of each compound in DMSO was transferred into assay plates along with the control compound (mefloquine). Next, 25 μl of the parasite suspension in medium was dispensed into the assay plates giving a final parasitaemia of 1% and a final haematocrit of 1%. The assay plates were incubated for 72 h at 37° C. 10 μl of detection reagent consisting of 10×SYBR Green I (Invitrogen; supplied in 10,000× concentration) in lysis buffer (20 mM Tris-HCl, 5 mM EDTA, 0.16% (w/v) Saponin, 1.6% (v/v) Triton X-100) was dispensed into the assay plates. For optimal staining, the assay plates were left at room temperature for 24 h in the dark. The assay plates were read with 505 dichroic mirrors with 485 nm excitation and 530 nm emission settings in an Envision (PerkinElmer).

C. parvum = C. parvum in vitro EC50 assay; format: cell-based; conditions: Cryptosporidium parvum; C. parvum oocysts in HCT-8 cells
Procedure: Human ileocecal adenocarcinoma (HCT-8) cells were obtained from ATCC and maintained in T-75 tissue culture flasks with RPMI 1640 medium with HEPES, sodium pyruvate (1 mM), and L-glutamine (ATCC) supplemented with 10% horse serum (ATCC) and 120 U/ml penicillin and 120 μg/ml streptomycin. Cells were plated into 384-well, tissue culture-treated, black-walled, clearbottom microwell plates (BD Falcon) at a density of 8,850 cells/well and allowed to grow to confluence. They were then inoculated with 5.5×10^3 primed C. parvum oocysts (Bunchgrass Farms, Deary, Id.) suspended in inoculation medium (RPMI 1640 without horse serum). Oocysts were primed for excystation by following a previously described protocol (J. Eukaryot. Microbiol. 46:56S-57S). Briefly, oocysts were treated for 10 min with 10 mM HCl at 37° C., centrifuged, and treated with a 2 mM solution of sodium taurocholate (Sigma-Aldrich) in phosphate-buffered saline (PBS) with Ca^2+ and Mg^2+. The suspension was incubated for 10 min at 16° C. and then diluted in inoculation medium and added to each well. Infected cells were incubated at 37° C. for 3 h, at which point an equal volume of growth medium containing 20% horse serum (total serum concentration of 10%). Compounds were diluted and assayed at fixed doses of 0.12, 0.37, 1.1, 3.3, and 10 μM (each concentration, n=14) for the generation of EC50 curves. In the case of final EC50 curves, three wells were left uninfected but treated with each of the corresponding concentrations of the compound to assess for background staining. All curves were generated using the log[inhibitor] versus response_variable slope equation in GraphPad Prism (equation 3), with the bottom constraint set equal to 0.

Row | SMILES | EC50 (P. falciparum Dd2) [nM] | EC50 (C. parvum) [nM]
1 | COc1ccc(NC(=O)N2C/C=C\CN3[C@H](CN(C)C)[C@H](c4ccc(C#Cc5ccccc5)cc4)[C@@H]3C2)cc1 [Example E4, (3Z,8R,9S,10S)-10-[(dimethylamino)methyl]-N-(4-methoxyphenyl)-9-[4-(2-phenylethynyl)phenyl]-1,6-diazabicyclo[6.2.0]dec-3-ene-6-carboxamide] | < 50 | 68
2 | COc1ccc(NC(=O)N2CC(CO)CCN3[C@H](CN(C)C)[C@H](c4ccc(C#Cc5ccccc5)cc4)[C@@H]3C2)cc1 (stereo partly drawn) [Example E33, (8R,9S,10S)-10-[(dimethylamino)methyl]-4-(hydroxymethyl)-N-(4-methoxyphenyl)-9-[4-(2-phenylethynyl)phenyl]-1,6-diazabicyclo[6.2.0]decane-6-carboxamide] | < 50 | 
3 | COc1ccc(NC(=O)N2C[C@H](O)[C@H](O)CN3[C@H](CN(C)C(C)C)[C@H](c4ccc(C#Cc5ccccc5)cc4)[C@@H]3C2)cc1 [Example E11, (3R,4S,8R,9S,10S)-3,4-dihydroxy-10-[[isopropyl(methyl)amino]methyl]-N-(4-methoxyphenyl)-9-[4-(2-phenylethynyl)phenyl]-1,6-diazabicyclo[6.2.0]decane-6-carboxamide] | 50 to 250 | 
4 | COc1ccc(NC(=O)N2C[C@H]3OCCO[C@H]3CN3[C@H](CN(C)C)[C@H](c4ccc(C#Cc5ccccc5)cc4)[C@@H]3C2)cc1 [Example E14, (4aR,7aR,8S,9S,11aS)-9-((dimethylamino)methyl)-N-(4-methoxyphenyl)-8-(4-(phenylethynyl)phenyl)octahydro-2H-azeto[1,2-a][1,4]dioxino[2,3-f][1,4]diazocine-6(3H)-carboxamide] | < 50 | 
5 | COc1ccc(NC(=O)N2C[C@H](O)[C@H](O)CN3C[C@H](c4ccc(C#Cc5ccccc5)cc4)[C@@H]3C2)cc1 [Example E37, (3R,4S,8R,9S)-3,4-dihydroxy-N-(4-methoxyphenyl)-9-[4-(2-phenylethynyl)phenyl]-1,6-diazabicyclo[6.2.0]decane-6-carboxamide] | 50 to 250 | 

The next lines start with the values.

Row | EC50 (P. falciparum Dd2) [nM] | EC50 (C. parvum) [nM] | SMILES
6 | < 50 | 33 | COc1ccc(NC(=O)N2CC[C@H](O)CN3[C@H](CN(C)C)[C@H](c4ccc(C#Cc5ccccc5)cc4)[C@@H]3C2)cc1 [Example E15, (3S,8R,9S,10S)-10-[(dimethylamino)methyl]-3-hydroxy-N-(4-methoxyphenyl)-9-[4-(2-phenylethynyl)phenyl]-1,6-diazabicyclo[6.2.0]decane-6-carboxamide]
7 | < 50 | 98 | COc1ccc(NC(=O)N2CCC(CO)CN3[C@H](CN(C)C)[C@H](c4ccc(C#Cc5ccccc5)cc4)[C@@H]3C2)cc1 (stereo partly drawn) [Example E26, (8R,9S,10S)-10-[(dimethylamino)methyl]-3-(hydroxymethyl)-N-(4-methoxyphenyl)-9-[4-(2-phenylethynyl)phenyl]-1,6-diazabicyclo[6.2.0]decane-6-carboxamide]
8 | 50 to 250 | 6 | COc1ccc(NC(=O)N2C[C@@H](O)[C@@H](O)CN3C[C@H](c4ccc(C#Cc5ccccc5)cc4)[C@@H]3C2)cc1 [Example E36, (3S,4R,8R,9S)-3,4-dihydroxy-N-(4-methoxyphenyl)-9-[4-(2-phenylethynyl)phenyl]-1,6-diazabicyclo[6.2.0]decane-6-carboxamide]
9 | < 50 | 134 | COc1ccc(NC(=O)N2CCC(CN(C)C)CN3[C@H](CO)[C@H](c4ccc(C#Cc5ccccc5)cc4)[C@@H]3C2)cc1 (stereo partly drawn) [Example E27, (8R,9R,10S)-3-[(dimethylamino)methyl]-10-(hydroxymethyl)-N-(4-methoxyphenyl)-9-[4-(2-phenylethynyl)phenyl]-1,6-diazabicyclo[6.2.0]decane-6-carboxamide]
10 | < 50 | 95 | COc1ccc(NC(=O)N2C[C@H](O)[C@H](O)CN3[C@H](CN(C)C)[C@H](c4ccc(C#Cc5ccccc5)cc4)[C@@H]3C2)cc1 [Example E6, (3R,4S,8R,9S,10S)-10-((dimethylamino)methyl)-3,4-dihydroxy-N-(4-methoxyphenyl)-9-(4-(phenylethynyl)phenyl)-1,6-diazabicyclo[6.2.0]decane-6-carboxamide]
11 | < 50 |  | COc1ccc(NC(=O)N2C[C@@H](O)[C@@H](O)CN3[C@H](CN(C)C)[C@H](c4ccc(C#Cc5ccccc5F)cc4)[C@@H]3C2)cc1 [Example E7, (3S,4R,8R,9S,10S)-10-[(dimethylamino)methyl]-9-[4-[2-(2-fluorophenyl)ethynyl]phenyl]-3,4-dihydroxy-N-(4-methoxyphenyl)-1,6-diazabicyclo[6.2.0]decane-6-carboxamide]

Reference: patent publication US11174260B2, “Compounds and methods for the treatment of parasitic diseases” (THE BROAD INSTITUTE, INC., priority 2017, dated 2021)
